Here are results for nine compounds from paper PMC3487892, “The Pentameric Channel of COMPcc in Complex with Different Fatty Acids” (PLoS ONE, 2012).

Usually Kd stands for the equilibrium constant for the complex coming apart.

Assay [1] deals with T1, COMPcc (Rattus norvegicus, UniProt P35444, G27M/H53Q/R54Q).
T1 construct: The coiled-coil domain of rat COMPcc comprising residues 27–72 was prepared as described previously; made in house; host or cells: E. coli
T1 sequence (P35444 27-72 G27M/H53Q/R54Q): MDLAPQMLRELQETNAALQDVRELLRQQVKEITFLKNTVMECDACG
In words: Fluorescence enhancement of cis-parinaric acid (CPA) on binding to COMPcc. The procedure: The coiled-coil domain of rat COMPcc comprising residues 27–72 was prepared as described previously. Purified COMPcc was dialyzed against PBS pH 7.4 and concentrated to 10 mg/mL using an 10 kDa Amicon membrane (Millipore).
Steady-state fluorescence spectra were measured on a Fluorolog-3 Horiba Jobin Yvon spectrofluorometer (Edison, NJ). The sample was held in a 10×10 mm quartz cuvette equipped with a continuous stirrer. The data were analyzed with Sigmaplot (Point Richmond, CA) software. The reaction was thermostatically controlled at 25°C by a Jeio-Tech refrigerating bath circulator (Des Plaines, IL). All fluorescence data were collected in 1× PBS buffer, pH 7.4. From the fluorescence enhancement profile of CPA, the fraction of ligand bound protein (f) can be calculated using: [drawing 1] (1) where F0 is the fluorescence of protein sample when no CPA has been added, F is the protein fluorescence at any given CPA concentration and F420 is the protein fluorescence in the presence of 3 µM of CPA. In the case of one ligand binding site, f follows a hyperbolic dependence upon ligand concentration given by: [drawing 2] […] Therefore, the binding of CPA to COMPcc is consistent with hyperbolic one site binding and the experimentally determined binding constant was 0.7±0.1 µM.

Assay [2] relates to COMPcc. On the set-up: method as in PMID 9736606. The note with it: ligand bound in the channel; ref [9]; cited from earlier work.
The next assay has as its system Q54I. The note with it: Q54I mutant; ref [9], [27]; cited from earlier work.
The subject of assay [3] is COMPcc. The conditions noted are these: wild type COMPcc; ref [9], [27]; cited from earlier work.
The target in assay [4] is T2, COMPcc (Rattus norvegicus, UniProt P35444).
T2 sequence (P35444 27-72): T1 sequence (P35444 27-72 G27M/H53Q/R54Q) with M1G, Q27H, Q28R
Kind of assay: Displacement of CPA from the CPA-COMPcc complex by fatty acids (fluorescence). It is filed as binding. The conditions noted are these: for Kd: calculated from [FA]1/2 of CPA displacement; for Kd / IC50: 1× PBS pH 7.4, 25°C, triplicate; for Interaction Free Energy: from Kd of CPA displacement; for IC50: read-out: [FA]1/2, fatty acid concentration that halves the CPA fluorescence, COMPcc ~0.1 µM, CPA 0.4 µM.
Procedure: Steady-state fluorescence spectra were measured on a Fluorolog-3 Horiba Jobin Yvon spectrofluorometer (Edison, NJ). The sample was held in a 10×10 mm quartz cuvette equipped with a continuous stirrer. The data were analyzed with Sigmaplot (Point Richmond, CA) software. The reaction was thermostatically controlled at 25°C by a Jeio-Tech refrigerating bath circulator (Des Plaines, IL). All fluorescence data were collected in 1× PBS buffer, pH 7.4. From the fluorescence enhancement profile of CPA, the fraction of ligand bound protein (f) can be calculated using: [drawing 1] (1) where F0 is the fluorescence of protein sample when no CPA has been added, F is the protein fluorescence at any given CPA concentration and F420 is the protein fluorescence in the presence of 3 µM of CPA. In the case of one ligand binding site, f follows a hyperbolic dependence upon ligand concentration given by: [drawing 2] (2) where B is a constant, Kd is the dissociation constant and [L]free is the concentration of free ligand (in this case CPA).
The probe CPA can also be used to characterize the binding of other fatty acids to COMPcc. The addition of fatty acids (FA) to the CPA-COMPcc complex will displace CPA leading to a decrease in fluorescence. […] In the case where there is no FA added the concentrations are [COMPcc] = [COMPcc]0 and [CPA]≈[CPA]0 = 0.4 µM. In this case the concentration of the CPA-COMPcc complex will be equal to: [drawing 5] (5) At [drawing 6] ,the concentration of the COMPcc-CPA complex is equal to one half the initial: [drawing 7] (6) Writing a mass balance for COMPcc we obtain: [drawing 8] (7) When [drawing 9] : [drawing 10] (8) The dissociation constant [drawing 11] can be calculated using the value of [FA]1/2 (the amount of fatty acid that reduces the CPA fluorescence to half its original value.

Numbering of substitutions follows the chain as printed.

With `CC\C=C/C=C/C=C/C=C\CCCCCCCC(=O)O` [cis-Parinaric acid], at COMPcc [1] (from Kd of direct CPA binding), the “Interaction Free Energy” value is -8.42 ± 0.08 kcal/mol. Further, at COMPcc [1] (hyperbolic one-site binding, excitation 320 nm, emission 420 nm, 1× PBS pH 7.4, 25°C), the Kd is 0.7 ± 0.1 µM.

Take `CCCCCCCC/C=C/CCCCCCCC(=O)O` [18:1 trans-9 elaidic acid]: the “increase of midpoint transition temperature (Tm) of unfolding” value (shortened to “increase … of unfolding”) in the assay with COMPcc [2] is 10 °C.

Take `CC1=C(/C=C/C(C)=C/C=C/C(C)=C/CO)C(C)(C)CCC1` [vitamin A]: the “Interaction Free Energy” value in the assay with Q54I is -8.3 kcal/mol; in the assay with COMPcc [3], -8.4 kcal/mol. In addition, the results for the Kd on Q54I and at COMPcc [3] were 0.8 µM and 0.6 µM, respectively.

For the compound `C1CCCCC1` [cyclohexane], the “increase … of unfolding” value in the assay on COMPcc [2] is 2 °C.

Turning to `CCCCCCCC/C=C\CCCCCCCC(=O)O` [C18:1 [Oleic acid], Oleic acid], at COMPcc [4], the Kd was 0.9 ± 0.1 µM, the “Interaction Free Energy” value is -8.24 ± 0.06 kcal/mol and the IC50 is 0.39 ± 0.05 µM.

Turning to `c1ccccc1` [benzene], the “increase … of unfolding” value in the assay with COMPcc [2] was 2 °C.

Turning to `CCCCCCCCCCCCCCCCCCCC(=O)O` [C20:0 [Arachidic acid], Arachidic acid], at COMPcc [4], the Kd was 0.7 ± 0.1 µM, the “Interaction Free Energy” value is -8.42 ± 0.08 kcal/mol and the IC50 was 0.28 ± 0.04 µM.

Regarding `CCCCCCCCCCCCCC(=O)O` [C14:0 [Myristic acid], Myristic acid], on COMPcc [4], the Kd is 0.8 ± 0.1 µM, the “Interaction Free Energy” value is -8.31 ± 0.07 kcal/mol and the IC50 is 0.32 ± 0.05 µM.

Take `C=C1CC[C@H](O)C/C1=C/C=C1\CCC[C@]2(C)[C@@H]([C@H](C)CCCC(C)C)CC[C@@H]12` [vitamin D3]: the “increase … of unfolding” value in the assay with COMPcc [2] was 8 °C.
